Patent US20040235931A1, “Inhibition of herpes virus replication” (priority 2003, published 2004)

Legend:
HSV-1 [1] = test: HSV-1 replication in MRC-5 cells, pfu determination; assay type: cell-based, herpes simplex virus type 1 (HSV-1); details: 375 μM I3C, pretreatment for 24 or 36 hours prior to infection
Protocol: MRC-5 cell cultures were infected with HSV-1 as described above in Example 1 except that the cells were treated with 375 μM of I3C following infection or for 12, 24, or 36 hours prior to infection. Cells were infected with HSV-1 at an moi of 1 for 1 hour. Following removal of the unabsorbed virus, the infected cells were incubated in media containing 0.2% DMSO (control cells) or in media containing 375 μM of I3C (test cells) At 24, 48, and 72 hours after infection, the number of pfu's present in the cells and medium of the cultures treated with I3C prior to or after infection was determined.

HSV-1 [2] = test: HSV-1 replication in Vero cells, plaque forming units (pfu) titration; assay type: cell-based, herpes simplex virus type 1 (HSV-1)
Protocol: Cultures of African green monkey kidney cells (Vero) cells, obtained from the American Type Culture Collection, Rockville, Md., were grown to confluence in Medium 199 supplemented with 5% fetal bovine serum, 0.075% NaHCO3, and 50 μg/ml gentamycin sulfate in 25 cm^2 tissue culture flasks. Cells were infected with HSV-1 at a multiplicity of infection (moi) of one and incubated at room temperature for one hour to allow for virus attachment to and penetration of the cell. Under these conditions, approximately half of the cells are infected with virus. Thereafter, the cultures were rinsed three time with media and incubated in medium containing 133 μM, 267 μM, or 400 μM I3C prepared in 0.2% dimethyl-sulfoxide (DMSO). Controls were treated identically, but were incubated without the I3C.
Upon addition of the medium to the cultures and at 24 hours time periods thereafter, i.e., 0 hours, 24 hours, 48 hours, and 72 hours after addition of the drug, cells and medium were frozen at −70° C. Samples were then thawed, sonicated and titrated on Vero cells to determine the number of plaque forming units (pfu's) of virus produced by each culture.
Vero cell cultures were infected with HSV-1 as described above in Example 1 except that the cells were treated with 267 μM of I3C for 6, 12, or 24 hours prior to infection. Cells were infected with HSV-1 at an moi of 1 for 1 hour. Following removal of the unabsorbed virus, the infected cells were incubated in media containing 0.2% DMSO (control cells) or in media containing 267 μM of I3C (test cells) At 24, 48, and 72 hours after infection, the number of pfu's present in the cells and medium of the I3C -treated cultures was determined.

HSV-2 = HSV-2 replication in Vero cells, pfu determination; assay type: cell-based, herpes simplex virus type 2 (HSV-2); details: 267 μM I3C
Protocol: Vero cell cultures that had been pretreated with 267 μM of I3C were infected with HSV-2 at an moi of one for 1 hour At 24, 48, and 72 hours after infection, the number of pfu's present in the cells and medium of the I3C pre-treated cultures were determined. In addition, Vero cells were infected with HSV-2 at an moi of one for 1 hour, and thereafter the cultures were rinsed three time with media and incubated in medium containing 267 μM prepared in 0.2% dimethyl-sulfoxide (DMSO). At 24, 48, and 72 hours after infection, the number of pfu's present in the test cell pre-treated with I3C or treated with I3C post infection were determined.

[3] = tested on: acyclovir resistant HSV-1; test: Acyclovir-resistant HSV-1 replication in Vero cells, pfu determination; assay type: cell-based, herpes simplex virus type 1 (HSV-1)
Protocol: Vero cell cultures were infected with acyclovir resistant HSV-1 at an moi of one for one hour. Test cells were treated with 267 μM of I3C immediately after or 24 hours prior to infection. At 24, 48, and 72 hours after infection, the number of pfu's present in the test cell pre-treated with I3C or treated with I3C post infection were determined.

MRC-5 cells = test: MTT toxicity assay in MRC-5 cells; assay type: cell-based, Human; details: MTT, 24, 48 and 72 hours
Protocol: (§1) African green monkey kidney cells (Vero) and Human neonatal lung fibroblasts cells (MRC-5) were obtained from the American Type Culture Collection, (Rockville, Md.). Vero cells were grown and maintained in Medium 199 supplemented with 5% fetal bovine serum, 0.075% NaHCO3 and 50 μg/ml gentamycin sulfates. MRC-5 cells were grown and maintained in Minimal Essential Medium with Earle's Balanced Salt Solution containing 2 mM L-glutamine supplemented with 10% fetal bovine serum, 0.lmM nonessential amino acids, 1 mM sodium pyruvate, 2% sodium bicarbonate and 50 μg/ml gentamycin sulfate.
(§2) Cells were exposed to drug treated media of varying concentrations. […] I3C concentrations used in these studies were 50% and 75% of the CD50. Cells were seeded onto a 96 well at 10,000 cells/well and grown for 24 hours. Twelve different serially diluted concentrations of I3C were then incubated with the cells for 24, 48 and 72 hours and colorimetric readings were taken at these time points using the MTT reagent. Controls included in the 96 well plate were, media alone that contained no cells but with I3C, media with cells but no I3C, and plain media with 0.2% DMSO and no cells or drug. At 24, 48 and 72 hours a sigmoidal curve was generated for each time period and the data analyzed. Approximately, 500 μM was the concentration at which 50 percent of the cells died (CD50).

HSV = test: Direct inactivation of HSV by incubation with I3C, plaque assay; details: HSV mixed with I3C solution (267 μM); 1, 10, 30 and 60 minutes; compared to control virus
Protocol: To determine if I3C could directly inactivate […] studies were done in which HSV was mixed with a solution of I3C (267 μM). Samples were taken at 1, 10, 30 and 60 minutes and the presence of infectious virus determined by the plaque assay.

Vero cells = test: MTT toxicity assay in Vero cells; assay type: cell-based, African green monkey; details: MTT, 24, 48 and 72 hours
Protocol: as §1, §2

**Q.** Which results are given for `OCc1c[nH]c2ccccc12` [I3C, indole-3-carbinol]?
**A.** HSV-1 replication in MRC5 cells (HSV-1 [1]): inhibition of HSV-1 replication; inhibition of HSV replication (HSV-1 [2]; 267 μM I3C, Vero cells incubated 12 to 24 hours prior to infection): dramatic and complete; HSV replication (HSV-1 [2]; 267 μM I3C, Vero cells pre-incubated 6 hours prior to infection, 24, 48, 72 hours after infection): proceeded at a reduced rate for 24 hours and then rapidly decreased at 48 and 72 hours to undetectable levels; infectious HSV particles in cultures (HSV-1 [2]; 400 μM I3C continuously post infection, Vero cells, by 72 hours): virtually undetectable; inhibition of formation of infectious virus particles (HSV-1 [2]; 400 μM I3C post infection, Vero cells, moi 1, at 24 hours): more than 99%; dose dependence of inhibition of virus replication (HSV-1 [2]; 133, 267, 400 μM I3C post infection, Vero cells): dose dependent; HSV-2 replication, first 24 hours (HSV-2; Vero cells treated 24 hours pre-infection): proceeded at a reduced rate for 24 hours; HSV-2 replication, first 24 hours (HSV-2; Vero cells treated post infection): proceeded at a reduced rate for 24 hours; HSV-2 replication at 48 and 72 hours (HSV-2; post-treated Vero cells): decreased at 48 and 72 hours; HSV-2 replication at 48 and 72 hours (HSV-2; pre-treated Vero cells): decreased at 48 and 72 hours; replication of acyclovir-resistant HSV ([3]; 267 μM I3C post infection, Vero cells, 24, 48, 72 hours after infection): proceeded at a reduced rate for 24 hours and then rapidly decreased at 48 and 72 hours to undetectable levels; inhibition of acyclovir-resistant HSV 1 replication ([3]; 267 μM I3C, Vero cells incubated 24 hours prior to infection): dramatic and complete; CD50 (concentration at which 50 percent of the cells died) (MRC-5 cells): ~500 µM; direct inactivation of HSV (HSV): no significant inactivation of HSV; CD50 (concentration at which 50 percent of the cells died) (Vero cells): ~500 µM
